Source: publication PMC3022637, “The modulation of TRPM7 currents by nafamostat mesilate depends directly upon extracellular concentrations of divalent cations” (Molecular Brain, 2010)
Each block holds one molecule with its values, some of them ahead of it.

Key:
[1] = target: T1, TRPM7 current in cultured mouse hippocampal neurons (Mus musculus, UniProt Q923J1); test: Whole-cell voltage clamp of TRPM7 currents in cultured hippocampal neurons (low divalent cation-induced or compound-activated); format: cell-based; conditions: for direct activation of TRPM7 current at physiological divalent cations: 2 mM Ca2+ and 1 mM Mg2+
T1 construct: supports the substantial involvement of endogenous TRPM7 channels in the responses of neurons; endogenous in cells; host or cells: primary cultured hippocampal neurons from embryonic Swiss mice

human TRPM7 channels = system: human TRPM7 channels; set-up: method as in PMID 18719395; conditions: pH 7.4 to 4.0; cited from earlier work

T1 sequence (Q923J1 whole entry): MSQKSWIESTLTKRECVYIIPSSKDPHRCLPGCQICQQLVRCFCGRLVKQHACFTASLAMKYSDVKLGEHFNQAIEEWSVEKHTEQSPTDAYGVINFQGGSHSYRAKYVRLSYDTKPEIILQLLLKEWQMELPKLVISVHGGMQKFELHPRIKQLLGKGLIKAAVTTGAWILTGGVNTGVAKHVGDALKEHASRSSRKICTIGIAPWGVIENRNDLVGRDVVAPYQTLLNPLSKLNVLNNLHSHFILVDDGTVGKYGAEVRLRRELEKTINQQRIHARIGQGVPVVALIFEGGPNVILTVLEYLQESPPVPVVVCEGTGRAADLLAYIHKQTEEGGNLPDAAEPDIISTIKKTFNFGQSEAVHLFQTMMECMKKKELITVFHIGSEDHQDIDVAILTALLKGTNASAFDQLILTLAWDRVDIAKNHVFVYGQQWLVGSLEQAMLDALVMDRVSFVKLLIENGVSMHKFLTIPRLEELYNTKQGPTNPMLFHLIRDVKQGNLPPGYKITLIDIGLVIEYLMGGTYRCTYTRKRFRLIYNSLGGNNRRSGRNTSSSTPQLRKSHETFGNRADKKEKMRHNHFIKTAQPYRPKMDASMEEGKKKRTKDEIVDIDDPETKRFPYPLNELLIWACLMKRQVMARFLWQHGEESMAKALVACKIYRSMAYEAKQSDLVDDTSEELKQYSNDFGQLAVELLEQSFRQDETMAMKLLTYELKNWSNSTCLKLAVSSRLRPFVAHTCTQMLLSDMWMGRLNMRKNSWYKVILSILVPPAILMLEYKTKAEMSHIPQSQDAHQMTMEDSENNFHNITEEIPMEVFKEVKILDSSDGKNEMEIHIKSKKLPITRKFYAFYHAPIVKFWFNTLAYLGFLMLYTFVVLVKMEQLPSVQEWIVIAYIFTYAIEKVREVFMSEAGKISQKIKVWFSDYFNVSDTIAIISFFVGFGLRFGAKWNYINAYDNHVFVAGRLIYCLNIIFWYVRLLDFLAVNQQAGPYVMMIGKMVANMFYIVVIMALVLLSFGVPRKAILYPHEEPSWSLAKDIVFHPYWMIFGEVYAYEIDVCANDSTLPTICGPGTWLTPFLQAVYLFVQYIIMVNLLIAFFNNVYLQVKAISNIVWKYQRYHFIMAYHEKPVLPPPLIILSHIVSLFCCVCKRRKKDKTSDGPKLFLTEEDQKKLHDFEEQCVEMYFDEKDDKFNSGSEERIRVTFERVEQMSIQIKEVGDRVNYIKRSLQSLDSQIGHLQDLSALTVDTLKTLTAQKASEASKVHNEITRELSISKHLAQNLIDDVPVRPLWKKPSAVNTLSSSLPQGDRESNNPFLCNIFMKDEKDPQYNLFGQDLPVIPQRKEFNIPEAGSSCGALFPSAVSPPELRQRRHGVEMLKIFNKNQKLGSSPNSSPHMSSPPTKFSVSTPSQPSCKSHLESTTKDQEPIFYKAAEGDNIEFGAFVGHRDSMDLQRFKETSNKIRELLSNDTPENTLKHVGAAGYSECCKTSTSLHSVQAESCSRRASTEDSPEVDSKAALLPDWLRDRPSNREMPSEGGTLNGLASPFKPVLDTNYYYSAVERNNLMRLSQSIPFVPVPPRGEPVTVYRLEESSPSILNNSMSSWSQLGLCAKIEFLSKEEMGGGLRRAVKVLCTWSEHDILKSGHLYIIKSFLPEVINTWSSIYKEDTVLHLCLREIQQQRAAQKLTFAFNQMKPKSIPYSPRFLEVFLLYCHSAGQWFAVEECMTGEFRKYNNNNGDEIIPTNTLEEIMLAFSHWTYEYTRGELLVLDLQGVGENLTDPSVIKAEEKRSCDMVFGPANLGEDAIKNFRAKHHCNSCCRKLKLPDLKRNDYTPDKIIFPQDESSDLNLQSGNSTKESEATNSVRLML

Compound: [Ca+2] [Ca^2+]
reduction of IC50 for monovalent cation block on decreasing pH from 7.4 to 4.0 (human TRPM7 channels): 410 fold

Compound: [Gd+3] [Gd^3+]
inhibition of TRPM7 current activated by NM ([1]; 10 μM): 97 ± 2%

Second part, the molecule after the results:

I compound / I control, pre-applied ([1]; 200 μM, normalized current): 85 ± 5%
block of TRPM7 current, co-applied ([1]; 1 mM (p-GBA up to 1 mM), low divalent-evoked current): only partially inhibited
I compound / I control, co-applied ([1]; 1 mM, normalized current): 69 ± 29%
potentiation of TRPM7 current, pre-applied ([1]; concentration not given): no potentiation
Compound: N=C(N)c1ccc2cc(O)ccc2c1 [AN, 6-amidino-2-naphthol]

direct activation of TRPM7 current at physiological divalent cations ([1]; 25 μM): without effect
direct activation of TRPM7 current at physiological divalent cations ([1]; 100 μM): strong effect
block of TRPM7 current ([1]; 250 μM, current evoked by 0.1 mM Ca2+ and 0.1 mM Mg2+): completely and reversibly blocked
Hill coefficient ([1]; current evoked by 0.1 mM Ca2+ and 0.1 mM Mg2+): 1.8
IC50 ([1]; current evoked by 0.1 mM Ca2+ and 0.1 mM Mg2+, -60 mV, acutely applied, read-out: IC50, block of TRPM7 current): 38 µM
Compound: N=C(N)c1ccc(-c2cc3ccc(C(=N)N)cc3[nH]2)cc1 [DAPI]

potentiation of TRPM7 current, pre-exposed ([1]; 200 μM): failed to potentiate
inhibition at 200 µM ([1]; 200 μM, read-out: inhibition of TRPM7 current, co-applied): 45 ± 3%
Compound: CCOC(=O)c1ccc(OC(=O)CCCCCNC(=N)N)cc1 [Gabexate, gabexate]
